Results as given in patent US11834453B2, “Substituted pyrimido[5,4-d]pyrimidines as HER2 inhibitors” (Array BioPharma Inc., priority 2020, dated 2023).
Like-named read-outs stand apart in the source and are kept apart here.

Assays:
ErbB2 WT = ErbB2 WT (Homo sapiens (Human), UniProt P04626); assay: ErbB enzyme assay (CisBio HTRF KinEASE-TK), Assay 2; assay type: biochemical
Procedure, shortened: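 Readout is HTRF KinEASE-TK, using Sa-XL665 and cryptate antibody for 1 h at 22 °C, as percent of control between DMSO-only (100) and pre-quenched (0) reactions. The kinase reaction runs 30 min at 22 °C with 1 mM ATP and 250 nM biotinylated TK substrate, in HEPES pH 7.4 with MgCl2 and 2% DMSO.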

[1] = target: ErbB2 with Exon 20 YVMA insertion (HER2-YVMA) (Homo sapiens (Human), UniProt P04626, INS775YVMA); assay: Cellular phosphorylation assay, constitutive ErbB2 phosphorylation (Y1196) in engineered NIH 3T3 cells, Assay 4; assay type: cell-based
Procedure, shortened: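 In-cell Western in NIH 3T3 cells carrying ErbB2 exon 20 YVMA insertion, with no ligand stimulation. One hour compound exposure at 37 °C before fixation and anti-pY1196 plus GAPDH staining with dual-wavelength fluorescence. IC50 derived after GAPDH normalization.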

[2] = target: ErbB2 insYVMA (HER2-YVMA, SEQ ID NO: 2) (Homo sapiens, UniProt P04626, INS775YVMA/P1170A); assay: biochemical; conditions: ErbB2 insYVMA enzyme assay
EGFR = EGFR (Homo sapiens (Human), UniProt P00533); assay: ErbB enzyme assay (CisBio HTRF KinEASE-TK), Assay 3; assay type: biochemical
Procedure, shortened: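 HTRF dual-wavelength read after 1 h detection; POC normalised to DMSO (100) and pre-quenched (0) controls, IC50 where 4-parameter curve crosses 50 POC. Reaction: 250 nM TK-substrate biotin, 1 mM ATP, pH 7.4 HEPES buffer with MgCl2, 30 min, 22 °C.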

EGFR wild type (EGFR WT) = EGFR wild type (EGFR WT) (Homo sapiens (Human), UniProt P00533); assay: Cellular phosphorylation assay, EGF-stimulated EGFR phosphorylation in engineered NIH 3T3 cells, Phospho-EGFR DuoSet IC ELISA, Assay 5; assay type: cell-based
Procedure, shortened: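 Phospho-EGFR ELISA on lysates of engineered NIH 3T3 EGFR WT cells, IC50 derived from concentration curves. Cells plated at 20,000/well overnight, given compound dilutions 1 h at 37 °C, then rEGF 100 ng/ml for a further 10 min before lysis.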

Chain of EGFR (P00533 25-1210): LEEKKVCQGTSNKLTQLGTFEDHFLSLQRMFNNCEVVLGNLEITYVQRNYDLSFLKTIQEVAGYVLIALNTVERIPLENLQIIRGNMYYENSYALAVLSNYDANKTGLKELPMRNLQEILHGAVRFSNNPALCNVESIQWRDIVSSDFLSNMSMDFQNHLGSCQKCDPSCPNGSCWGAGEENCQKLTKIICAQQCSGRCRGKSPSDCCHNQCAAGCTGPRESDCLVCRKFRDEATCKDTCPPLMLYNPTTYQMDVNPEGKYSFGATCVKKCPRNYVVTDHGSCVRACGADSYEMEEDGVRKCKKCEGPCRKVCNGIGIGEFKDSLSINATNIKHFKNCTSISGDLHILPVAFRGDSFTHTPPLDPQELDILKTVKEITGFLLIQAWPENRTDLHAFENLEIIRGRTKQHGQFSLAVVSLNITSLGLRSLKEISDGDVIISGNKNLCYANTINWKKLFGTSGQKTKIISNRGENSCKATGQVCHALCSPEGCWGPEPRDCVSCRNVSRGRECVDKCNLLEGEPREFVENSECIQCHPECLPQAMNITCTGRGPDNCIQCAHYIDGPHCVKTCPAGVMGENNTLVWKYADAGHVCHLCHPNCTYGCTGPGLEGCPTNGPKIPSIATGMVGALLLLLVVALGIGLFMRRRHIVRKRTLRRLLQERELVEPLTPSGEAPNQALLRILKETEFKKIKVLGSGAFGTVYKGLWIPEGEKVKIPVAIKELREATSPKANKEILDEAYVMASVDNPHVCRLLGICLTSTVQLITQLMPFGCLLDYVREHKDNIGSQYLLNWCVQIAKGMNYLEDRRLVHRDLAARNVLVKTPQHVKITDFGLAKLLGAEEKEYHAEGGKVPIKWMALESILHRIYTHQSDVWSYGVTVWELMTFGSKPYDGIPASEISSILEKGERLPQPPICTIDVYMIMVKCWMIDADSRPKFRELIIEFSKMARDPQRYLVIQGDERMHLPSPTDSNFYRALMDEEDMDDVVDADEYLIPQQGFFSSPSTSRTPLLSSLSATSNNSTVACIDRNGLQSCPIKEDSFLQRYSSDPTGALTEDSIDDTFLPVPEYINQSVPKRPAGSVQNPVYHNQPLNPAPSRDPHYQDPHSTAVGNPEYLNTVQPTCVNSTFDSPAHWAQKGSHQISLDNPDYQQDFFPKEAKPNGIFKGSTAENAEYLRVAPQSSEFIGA
Chain of EGFR wild type (EGFR WT) (P00533 25-1210): as above
Chain of ErbB2 with Exon 20 YVMA insertion (HER2-YVMA) (P04626 other isoform, or with tags, fused parts or gaps ins YVMA behind 775): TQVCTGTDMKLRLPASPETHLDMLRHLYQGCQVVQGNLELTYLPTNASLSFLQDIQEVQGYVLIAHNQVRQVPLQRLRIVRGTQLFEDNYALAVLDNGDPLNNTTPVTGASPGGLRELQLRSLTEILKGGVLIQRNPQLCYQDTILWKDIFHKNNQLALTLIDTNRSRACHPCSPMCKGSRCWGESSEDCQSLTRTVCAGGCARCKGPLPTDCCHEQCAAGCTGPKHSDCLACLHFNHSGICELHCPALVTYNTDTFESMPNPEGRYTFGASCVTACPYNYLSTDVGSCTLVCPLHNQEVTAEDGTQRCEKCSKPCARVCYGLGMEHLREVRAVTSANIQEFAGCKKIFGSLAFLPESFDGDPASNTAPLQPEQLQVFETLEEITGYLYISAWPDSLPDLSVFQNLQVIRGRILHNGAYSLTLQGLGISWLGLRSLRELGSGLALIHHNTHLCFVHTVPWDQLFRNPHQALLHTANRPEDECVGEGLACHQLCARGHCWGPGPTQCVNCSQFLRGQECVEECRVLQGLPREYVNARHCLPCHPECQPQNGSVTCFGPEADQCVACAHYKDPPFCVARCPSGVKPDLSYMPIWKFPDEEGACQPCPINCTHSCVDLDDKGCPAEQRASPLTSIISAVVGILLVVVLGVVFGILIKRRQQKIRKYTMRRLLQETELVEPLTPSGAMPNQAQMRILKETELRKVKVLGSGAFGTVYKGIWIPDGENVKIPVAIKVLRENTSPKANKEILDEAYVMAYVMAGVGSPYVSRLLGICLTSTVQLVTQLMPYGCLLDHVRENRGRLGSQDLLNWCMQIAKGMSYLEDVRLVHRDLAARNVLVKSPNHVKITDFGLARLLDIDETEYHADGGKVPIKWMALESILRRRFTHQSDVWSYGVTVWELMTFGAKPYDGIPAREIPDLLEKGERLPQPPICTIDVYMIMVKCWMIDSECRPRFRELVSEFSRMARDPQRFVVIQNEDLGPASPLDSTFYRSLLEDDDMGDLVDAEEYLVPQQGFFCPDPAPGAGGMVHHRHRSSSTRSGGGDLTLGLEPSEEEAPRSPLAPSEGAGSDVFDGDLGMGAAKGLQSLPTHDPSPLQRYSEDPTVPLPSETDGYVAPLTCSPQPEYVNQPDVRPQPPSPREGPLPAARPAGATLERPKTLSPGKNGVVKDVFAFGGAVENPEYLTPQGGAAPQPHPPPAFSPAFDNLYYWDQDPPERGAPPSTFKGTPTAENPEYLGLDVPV
Chain of ErbB2 WT (P04626 23-1255): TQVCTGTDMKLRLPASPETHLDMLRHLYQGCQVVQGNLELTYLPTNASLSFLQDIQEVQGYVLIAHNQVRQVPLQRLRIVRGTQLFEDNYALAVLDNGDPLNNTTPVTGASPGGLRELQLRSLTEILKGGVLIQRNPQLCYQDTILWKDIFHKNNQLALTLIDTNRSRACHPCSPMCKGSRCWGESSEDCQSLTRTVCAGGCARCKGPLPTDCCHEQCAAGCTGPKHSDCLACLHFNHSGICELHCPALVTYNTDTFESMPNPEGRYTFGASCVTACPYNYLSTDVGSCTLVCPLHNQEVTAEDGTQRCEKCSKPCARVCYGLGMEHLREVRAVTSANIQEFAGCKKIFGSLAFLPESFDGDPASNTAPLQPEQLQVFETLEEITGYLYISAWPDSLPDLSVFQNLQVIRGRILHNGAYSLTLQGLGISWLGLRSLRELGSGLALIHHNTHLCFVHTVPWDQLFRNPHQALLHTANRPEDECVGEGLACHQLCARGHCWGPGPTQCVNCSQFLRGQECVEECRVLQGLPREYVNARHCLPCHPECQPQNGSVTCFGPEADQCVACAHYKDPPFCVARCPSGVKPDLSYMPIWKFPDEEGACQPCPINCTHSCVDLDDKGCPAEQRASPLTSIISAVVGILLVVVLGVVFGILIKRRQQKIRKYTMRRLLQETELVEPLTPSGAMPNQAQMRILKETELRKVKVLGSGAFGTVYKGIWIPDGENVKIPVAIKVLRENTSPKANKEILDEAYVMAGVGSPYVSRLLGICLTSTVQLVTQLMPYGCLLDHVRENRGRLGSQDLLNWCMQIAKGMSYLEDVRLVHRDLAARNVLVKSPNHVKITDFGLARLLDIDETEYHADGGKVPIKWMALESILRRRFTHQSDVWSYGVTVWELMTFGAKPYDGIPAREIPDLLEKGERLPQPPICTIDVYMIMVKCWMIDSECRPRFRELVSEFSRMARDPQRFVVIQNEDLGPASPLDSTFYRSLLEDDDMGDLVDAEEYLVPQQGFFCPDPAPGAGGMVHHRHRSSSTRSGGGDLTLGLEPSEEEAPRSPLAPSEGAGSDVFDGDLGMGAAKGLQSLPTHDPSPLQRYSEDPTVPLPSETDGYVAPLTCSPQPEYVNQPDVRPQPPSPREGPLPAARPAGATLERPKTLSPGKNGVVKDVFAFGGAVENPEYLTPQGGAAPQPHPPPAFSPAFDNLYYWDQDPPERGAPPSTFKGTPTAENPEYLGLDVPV

Clc1cc(Nc2ncnc3cnc(N4C[C@@H]5C[C@H]4CO5)nc23)ccc1Oc1ccn2ncnc2c1 [Example 426]
IC50 (ErbB2 WT): 16.2 nM | IC50 [1]: 112 nM | IC50 ([2]; read-out: Assay 1 IC50): 16.2 nM | IC50 (EGFR): 4210 nM | IC50 (EGFR wild type (EGFR WT)): ≥ 5000 nM

Cc1cc(Nc2ncnc3cnc(N(C)[C@@H]4CCOC4)nc23)ccc1Oc1ccn2ncnc2c1 [Example 427]
IC50 (ErbB2 WT): 43.1 nM | IC50 [1]: 121 nM | IC50 ([2]; read-out: Assay 1 IC50): 25 nM | IC50 (EGFR): 7940 nM | IC50 (EGFR wild type (EGFR WT)): ≥ 5000 nM

Cc1cc(Nc2ncnc3cnc(N4CCCO4)nc23)ccc1Oc1ccn2ncnc2c1 [Example 428]
IC50 (ErbB2 WT): 202 nM | IC50 [1]: 317 nM | IC50 ([2]; read-out: Assay 1 IC50): 55.5 nM | IC50 (EGFR): ≥ 10000 nM | IC50 (EGFR wild type (EGFR WT)): ≥ 5000 nM

FC(F)(F)[C@H]1CN(c2ncc3ncnc(Nc4ccc(Oc5ccn6ncnc6c5)c(Cl)c4)c3n2)CCN1 [Example 429]
IC50 (ErbB2 WT): 39.6 nM | IC50 [1]: 46.6 nM | IC50 ([2]; read-out: Assay 1 IC50): 11.2 nM | IC50 (EGFR): 3950 nM | IC50 (EGFR wild type (EGFR WT)): ≥ 5000 nM

Clc1cc(Nc2ncnc3cnc(N4CCN5CCOC[C@H]5C4)nc23)ccc1Oc1ccn2ncnc2c1 [Example 430]
IC50 (ErbB2 WT): 25.5 nM | IC50 [1]: 31.9 nM | IC50 ([2]; read-out: Assay 1 IC50): 8.6 nM | IC50 (EGFR): 4030 nM | IC50 (EGFR wild type (EGFR WT)): ≥ 5000 nM

Clc1cc(Nc2ncnc3cnc(N4CCN5CCOC[C@@H]5C4)nc23)ccc1Oc1ccn2ncnc2c1 [Example 431]
IC50 (ErbB2 WT): 63.1 nM | IC50 [1]: 232 nM | IC50 ([2]; read-out: Assay 1 IC50): 21.8 nM | IC50 (EGFR): ≥ 10000 nM | IC50 (EGFR wild type (EGFR WT)): ≥ 5000 nM

Cc1cc(Nc2ncnc3cnc(N4CCC[C@@H]5COC[C@@H]54)nc23)ccc1Oc1ccc2c(c1)ncn2C [Example 432]
IC50 (ErbB2 WT): 71.1 nM | IC50 [1]: 80.2 nM | IC50 ([2]; read-out: Assay 1 IC50): 28.8 nM | IC50 (EGFR): ≥ 10000 nM | IC50 (EGFR wild type (EGFR WT)): ≥ 5000 nM

O=S1(=O)CC[C@@H]2CN(c3ncc4ncnc(Nc5ccc(Oc6ccn7ncnc7c6)c(Cl)c5)c4n3)C[C@@H]21 [Example 433]
IC50 (ErbB2 WT): 67.4 nM | IC50 [1]: 385 nM | IC50 ([2]; read-out: Assay 1 IC50): 29.3 nM | IC50 (EGFR): ≥ 10000 nM | IC50 (EGFR wild type (EGFR WT)): ≥ 5000 nM

Clc1cc(Nc2ncnc3cnc(N4CC[C@@]45CCOC5)nc23)ccc1Oc1ccn2ncnc2c1 [Example 434]
IC50 (ErbB2 WT): 10.2 nM | IC50 [1]: 161 nM | IC50 ([2]; read-out: Assay 1 IC50): 8.4 nM | IC50 (EGFR): 760 nM | IC50 (EGFR wild type (EGFR WT)): ≥ 5000 nM

CON1CCN(c2ncc3ncnc(Nc4ccc(Oc5ccn6ncnc6c5)c(Cl)c4)c3n2)CC1 [Example 436]
IC50 (ErbB2 WT): 25 nM | IC50 [1]: 61.1 nM | IC50 ([2]; read-out: Assay 1 IC50): 15.4 nM | IC50 (EGFR): ≥ 10000 nM | IC50 (EGFR wild type (EGFR WT)): ≥ 5000 nM

Cc1c(Oc2ccc3c(c2)ncn3C)ccc(Nc2ncnc3cnc(N(C)CC(C)(C)O)nc23)c1F [Example 438]
IC50 (ErbB2 WT): 47 nM | IC50 [1]: 134 nM | IC50 ([2]; read-out: Assay 1 IC50): 27.4 nM | IC50 (EGFR): ≥ 10000 nM | IC50 (EGFR wild type (EGFR WT)): ≥ 5000 nM

Cn1cnc2cc(Oc3ccc(Nc4ncnc5cnc(N6C[C@@H]7C[C@H]6CO7)nc45)cc3Cl)ccc21 [Example 440]
IC50 (ErbB2 WT): 176 nM | IC50 [1]: 58.2 nM | IC50 ([2]; Assay 1 IC50 (nM)): 48.7 nM | IC50 (EGFR): ≥ 10000 nM | IC50 (EGFR wild type (EGFR WT)): ≥ 5000 nM

Cn1cnc2cc(Oc3ccc(Nc4ncnc5cnc(N6C7CCC6COC7)nc45)cc3Cl)ccc21 [Example 441]
IC50 (ErbB2 WT): 67.2 nM | IC50 [1]: 89.1 nM | IC50 ([2]; Assay 1 IC50 (nM)): 106 nM | IC50 (EGFR): 9570 nM | IC50 (EGFR wild type (EGFR WT)): ≥ 5000 nM

Cn1cnc2cc(Oc3ccc(Nc4ncnc5cnc(N6CC7(CCOC7)C6)nc45)cc3Cl)ccc21 [Example 442]
IC50 (ErbB2 WT): 180 nM | IC50 [1]: 105 nM | IC50 ([2]; Assay 1 IC50 (nM)): 69.5 nM | IC50 (EGFR): ≥ 10000 nM | IC50 (EGFR wild type (EGFR WT)): ≥ 5000 nM

Cn1cnc2cc(Oc3ccc(Nc4ncnc5cnc(N6CCC7(CCOC7)C6)nc45)cc3Cl)ccc21 (stereo not shown) [Example 443]
IC50 (ErbB2 WT): 104 nM | IC50 [1]: 37.7 nM | IC50 ([2]; Assay 1 IC50 (nM)): 60.1 nM | IC50 (EGFR): ≥ 10000 nM | IC50 (EGFR wild type (EGFR WT)): ≥ 5000 nM

Cn1cnc2cc(Oc3ccc(Nc4ncnc5cnc(N6CC[C@@H](C#N)C6)nc45)cc3Cl)ccc21 [Example 444]
IC50 (ErbB2 WT): 52.6 nM | IC50 [1]: 41.7 nM | IC50 ([2]; read-out: Assay 1 IC50): 24.3 nM | IC50 (EGFR): ≥ 10000 nM | IC50 (EGFR wild type (EGFR WT)): ≥ 5000 nM

Cn1cnc2cc(Oc3ccc(Nc4ncnc5cnc(N6CCN[C@H](C(F)(F)F)C6)nc45)cc3Cl)ccc21 [Example 445]
IC50 (ErbB2 WT): 64.5 nM | IC50 [1]: 44.2 nM | IC50 ([2]; read-out: Assay 1 IC50): 65 nM | IC50 (EGFR): 4500 nM | IC50 (EGFR wild type (EGFR WT)): ≥ 5000 nM
